“And” between values parts separate entries of the source, which are not always exact repeats. Equal values may be shown once. Where a name gives a salt, the structure may show the parent alone.
How the values were obtained:
[1] = tested on: rat PCLS; design: method as in Starokozhko et al. [2017a]; conditions: in the presence of BAs, ref Starokozhko et al. [2017a]; cited from earlier work
[2] = tested on: Ntcp (Slc10a1); assay: qRT-PCR gene expression in mouse PCLS: Ntcp; format: cell-based; conditions: 48 h, BAs present, highest concentration of CPZ, lowest concentration of GB
Experimental: In short, freshly prepared PCLS were transferred to 12-well plates (Greiner bio-one GmbH, Austria), one slice per well. Each well was filled with 1.3 mL pre-heated (37 ℃) and oxygenated (80%) Williams Medium E (1X, glutaMAX-1), which had been supplemented with 25 mM D-glucose monohydrate and 50 μg/ml Gentamicin (denoted as WME GG). […] The DMSO concentration used was below 0.5% in the incubation medium, equivalent to DMSO concentrations in solutions prepared by dilution of BA stock solutions with WME GG.
(§1) Three PCLS incubated under a given condition were pooled in a 1.5-mL Rnase-free test tube, snap-frozen in liquid nitrogen, and stored at – 80 °C until analysis. RNA was isolated using a FavorPrep Tissue Total RNA Mini Kit (Favorgen, Vienna, Austria). Subsequently, the RNA yield was quantified using a NanoDrop One instrument (Thermo Fisher Scientific, Massachusetts, USA). Isolated RNA was reverse-transcribed to cDNA using a cDNA synthesis kit (Reverse Transcription System, Promega, Benelux B.V.). The cDNA samples were subsequently loaded in the thermal cycler with a program set to 22 °C for 10 min, 42 °C for 15 min, and 95 °C for 5 min.
(§2) qRT-PCR was used to determine the relative mRNA expression levels for the mouse target genes: Bsep (Abcb11), Mrp2 (Abcc2), Mrp3 (Abcc3), Mrp4 (Abcc4), Ntcp (Slc10a1), Fxr (Nr1h4), Cyp7a1 (Cyp7a1), Collagen type 1a1 (Col1a1), Hsp47 (Serpinh1). Primer sequences of the genes tested are given in Supplementary Table S1. QRT-PCR was performed using, the dye, FastStart Universal SYBR Green Master Mix (Roche Diagnostics Netherlands B.V., Almere, the Netherlands) with the ViiA™ 7 Real-Time PCR System (Applied Biosystems, Bleiswijk, the Netherlands). The first cycle constituted 10 min at 95 °C, followed by 40 cycles of 15 s at 95 °C, 30 s at 60 °C and 30 s at 72 °C, followed by 1 cycle dissociation stage (15 s: 95 °C, 60 °C and 95 °C). A minimum of four mouse livers was used for each experiment, using three PCLS per condition. Samples were measured in duplicates. […] Results are expressed as log2(fold change).

[3] = tested on: Bsep (Abcb11); assay: qRT-PCR gene expression in mouse PCLS: Bsep; format: cell-based; conditions: 48 h, in the presence and absence of BAs, vs control without drug
Experimental: In short, freshly prepared PCLS were transferred to 12-well plates (Greiner bio-one GmbH, Austria), one slice per well.
as §1, §2

[4] = tested on: mouse PCLS; assay: LC–MS/MS quantification of intracellular BAs in mouse PCLS; format: cell-based; conditions: 48 h
Experimental: In short, freshly prepared PCLS were transferred to 12-well plates (Greiner bio-one GmbH, Austria), one slice per well. […] The composition of the human-like BA mixture was based on serum concentrations in mice and humans, measured by […]. […] A Shimadzu Nexera X2 HPLC system with binary pumps was interfaced to a Thermo Scientific TSQ Quantum ultra-triple quadrupole mass spectrometer. The BA analysis was performed by liquid chromatography-tandem mass spectrometry (LC-MS/MS). Xcalibur software version 2.0.7 by Thermo Scientific was applied in the data processing. […] Phenomenex, Utrecht, the Netherlands) reversed-phase column was used to separate the BAs. The column and autosampler temperatures were set at 55 °C and 4 °C, respectively. The injection volume was 15 μL, and the flow was set at 0.3 mL/min. […] Intracellular BA concentrations in PCLS were measured by LC-MS/MS. Sample preparation for these measurements of intracellular BAs was performed as follows. […] Hereafter, three slices for each condition were pooled in a 1.5-mL test tube, snap-frozen in liquid nitrogen and stored at -80 °C until analysis. […] Samples were subsequently centrifuged for 15 min at 15 °C and 13,000 rpm. The supernatant was collected in a new tube, and the samples were concentrated using a Concentrator plus centrifuge (Eppendorf, Germany). […] The concentrations of CA, CDCA, DCA, LCA, UDCA, HDCA, […] and GCA were determined with MRM-based LC-MS as described above.

[5] = with humanized BA mixture, CPZ 15 µM, CSA 1 µM, GB 25 µM
[6] = with humanized BA mixture, CPZ 30 µM, CSA 6 µM, GB 65 µM
[7] = without BA mixture, CPZ 15 µM, CSA 1 µM, GB 25 µM
[8] = without BA mixture, CPZ 30 µM, CSA 6 µM, GB 65 µM

SMILES: CN(C)CCCN1c2ccccc2Sc2ccc(Cl)cc21 [CPZ, Chlorpromazine hydrochloride]
- Concentration reaching severe toxicity [1]: 36 µM
- Ntcp gene expression [2]: increase the expression of Ntcp significantly
- Bsep gene expression [3]: reduces
- Effect on total intracellular BA concentration ([4]; in the absence of the BA mixture): increased the total intracellular concentration of BAs
- Intracellular CA concentration [4, 5]: 259.9±32.0 pmol/mg protein
- Intracellular CDCA concentration [4, 5]: 20.9±1.8 pmol/mg protein
- Intracellular DCA concentration [4, 5]: 87.7±14.0 pmol/mg protein
- Intracellular GCA concentration [4, 5]: 34.7±16.0 pmol/mg protein
- Intracellular HDCA concentration [4, 5]: 4.0±2.5 pmol/mg protein
- Intracellular LCA concentration [4, 5]: 3.4±1.3 pmol/mg protein
- Intracellular TCA concentration [4, 5]: 244.1±42.8 pmol/mg protein
- Intracellular TCDCA concentration [4, 5]: 10.1±0.2 pmol/mg protein
- Intracellular TDCA concentration [4, 5]: 14.1±0.8 pmol/mg protein
- Intracellular THDCA concentration [4, 5]: 9.4±1.4 pmol/mg protein
- Intracellular UDCA concentration [4, 5]: 34.2±4.0 pmol/mg protein
- Total intracellular concentration of 11 BAs [4, 5]: 722.5±95.4 pmol/mg protein
- Intracellular CA concentration [4, 6]: 314.1±29.7 pmol/mg protein
- Intracellular CDCA concentration [4, 6]: 41.3±6.4 pmol/mg protein
- Intracellular DCA concentration [4, 6]: 297 pmol/mg protein and 297.9±25.1 pmol/mg protein
- Intracellular GCA concentration [4, 6]: 26.1±3.5 pmol/mg protein
- Intracellular HDCA concentration [4, 6]: 13.6±3.9 pmol/mg protein
- Intracellular LCA concentration [4, 6]: 14.9±8.6 pmol/mg protein
- Intracellular TCA concentration [4, 6]: 351.2±67.0 pmol/mg protein
- Intracellular TCDCA concentration [4, 6]: 18.2±5.3 pmol/mg protein
- Intracellular TDCA concentration [4, 6]: 44.3±5.1 pmol/mg protein
- Intracellular THDCA concentration [4, 6]: 9.0±3.0 pmol/mg protein
- Intracellular UDCA concentration [4, 6]: 46.3±3.0 pmol/mg protein
- Effect on total intracellular BA concentration ([4]; with humanized BA mixture, vs control): intracellular accumulation of BAs
- Intracellular CA concentration [4, 7]: 0.3±0.0 pmol/mg protein
- Intracellular CDCA concentration [4, 7]: 0.2±0.2 pmol/mg protein
- Intracellular DCA concentration [4, 7]: 0.1±0.1 pmol/mg protein
- Intracellular GCA concentration [4, 7]: 0.0±0.0 pmol/mg protein
- Intracellular HDCA concentration [4, 7]: 0.0±0.0 pmol/mg protein
- Intracellular LCA concentration [4, 7]: 0.2±0.1 pmol/mg protein
- Intracellular TCA concentration [4, 7]: 0.8±0.1 pmol/mg protein
- Intracellular TCDCA concentration [4, 7]: 14.4±1.7 pmol/mg protein
- Intracellular TDCA concentration [4, 7]: 0.1±0.1 pmol/mg protein
- Intracellular THDCA concentration [4, 7]: 2.4±0.3 pmol/mg protein
- Intracellular UDCA concentration [4, 7]: 0.0±0.0 pmol/mg protein
- Total intracellular concentration of 11 BAs [4, 7]: 18.7±0.0 pmol/mg protein
- Intracellular CA concentration [4, 8]: 0.4±0.1 pmol/mg protein
- Intracellular CDCA concentration [4, 8]: 0.4±0.2 pmol/mg protein
- Intracellular DCA concentration [4, 8]: 0.1±0.1 pmol/mg protein
- Intracellular GCA concentration [4, 8]: 0.0±0.0 pmol/mg protein
- Intracellular HDCA concentration [4, 8]: 0.0±0.0 pmol/mg protein
- Intracellular LCA concentration [4, 8]: 0.3±0.2 pmol/mg protein
- Intracellular TCA concentration [4, 8]: 1.2±0.1 pmol/mg protein
- Intracellular TCDCA concentration [4, 8]: 25.0±2.2 pmol/mg protein
- Intracellular TDCA concentration [4, 8]: 0.1±0.1 pmol/mg protein
- Intracellular THDCA concentration [4, 8]: 5.2±0.7 pmol/mg protein
- Intracellular UDCA concentration [4, 8]: 0.0±0.0 pmol/mg protein
- Total intracellular concentration of 11 BAs [4, 8]: 32.7±0.0 pmol/mg protein

Reference: article PMC9325861, “Mouse precision-cut liver slices as an ex vivo model to study drug-induced cholestasis” (Archives of Toxicology, 2022)
